Measurements published in publication PMC4689772, “The Effect of Excipients on the Permeability of BCS Class III Compounds and Implications for Biowaivers” (Pharmaceutical Research, 2015).
Blank lines part the entries; values can stand above or below the compound they belong to.

What was measured:
in vitro = settings: Caco-2
[1] = Bidirectional permeability across Caco-2 cell monolayers (no excipients); settings: human; for recovery: Caco-2, no excipients, cassette, mean ± SD, n = 3
in vivo = settings: Sprague-Dawley, rat, pH 6.8, Effective permeability coefficient (Peff), rat jejunum, mean ± SEM, n = 4
[2] = Unidirectional (A→B) permeability across Caco-2 cell monolayers in presence and absence of excipients; settings: human, Caco-2, Apparent permeability coefficient (Papp), mean ± SEM, n = 4
[3] = Recirculating in situ rat intestinal perfusion (jejunum) in presence and absence of excipients; settings: Sprague-Dawley, pH 6.8, Effective permeability coefficient (Peff), mean ± SEM, n = 4

Papp A→B (in vitro): 29.8 ± 1.8 ×10⁻⁶ cm/s
recovery ([1]; Caco-2, A→B Recovery): 82.2 ± 8.6%
recovery ([1]; Caco-2, B→A Recovery): 94.9 ± 12.2%
Compound: Nc1nc2c(ncn2COCCO)c(=O)[nH]1 [Acyclovir, acyclovir]

Papp at 90 min (in vivo; Control (no excipient)): 143 ± 17 ×10⁻⁶ cm/s
Papp at 90 min (in vivo; HPMC 0.06 mg/ml): 168 ± 35 ×10⁻⁶ cm/s
Papp at 90 min (in vivo; PEG 400 0.06 mg/ml): 117 ± 22 ×10⁻⁶ cm/s
Papp at 90 min (in vivo; PEG 400 0.30 mg/ml (first run)): 82 ± 15 ×10⁻⁶ cm/s
Papp at 90 min (in vivo; PEG 400 0.30 mg/ml, second run): 153 ± 18 ×10⁻⁶ cm/s
Papp at 90 min (in vivo; PEG 400 […]): 90 ± 26 ×10⁻⁶ cm/s
Papp at 90 min (in vivo; Povidone 0.06 mg/ml): 133 ± 42 ×10⁻⁶ cm/s
Papp at 90 min (in vivo; SLS 0.01 mg/ml): 175 ± 23 ×10⁻⁶ cm/s
Papp at 90 min (in vivo; SLS 0.02 mg/ml): 93 ± 26 ×10⁻⁶ cm/s
Papp at 90 min (in vivo; SLS 0.04 mg/ml): 108 ± 18 ×10⁻⁶ cm/s
Papp at 90 min (in vivo; SLS […]): 157 ± 46 ×10⁻⁶ cm/s
Compound: Cc1cc(=O)n(-c2ccccc2)n1C [Antipyrine, antipyrine]

Papp A→B ([2]; Control a (no excipient)): 0.21 ± 0.06 ×10⁻⁶ cm/s
Papp A→B ([2]; Control b (no excipient)): 0.21 ± 0.04 ×10⁻⁶ cm/s
Papp A→B ([2]; D-Lactose 1.0 mg/ml (control set b)): 0.14 ± 0.05 ×10⁻⁶ cm/s
Papp A→B ([2]; D-Lactose 2.0 mg/ml (control set b)): 0.13 ± 0.01 ×10⁻⁶ cm/s
Papp A→B ([2]; HPMC 0.06 mg/ml (control set a)): 0.14 ± 0.05 ×10⁻⁶ cm/s
Papp A→B ([2]; HPMC 1.0 mg/ml (control set b)): 0.13 ± 0.05 ×10⁻⁶ cm/s
Papp A→B ([2]; HPMC 2.0 mg/ml (control set b)): 0.11 ± 0.02 ×10⁻⁶ cm/s
Papp A→B ([2]; PEG 400 0.06 mg/ml (control set a)): 0.13 ± 0.01 ×10⁻⁶ cm/s
Papp A→B ([2]; PEG 400 […] (control set a)): 0.14 ± 0.04 ×10⁻⁶ cm/s
Papp A→B ([2]; PEG 400 […] (control set b)): 0.27 ± 0.04 ×10⁻⁶ cm/s
Papp A→B ([2]; Povidone 0.06 mg/ml (control set a)): 0.09 ± 0.02 ×10⁻⁶ cm/s
Papp A→B ([2]; Povidone 0.2 mg/ml (control set b)): 0.15 ± 0.05 ×10⁻⁶ cm/s
Papp A→B ([2]; SLS 0.01 mg/ml (control set a)): 0.23 ± 0.07 ×10⁻⁶ cm/s
Papp A→B ([2]; SLS 0.02 mg/ml (control set a)): 0.31 ± 0.05 ×10⁻⁶ cm/s
Papp A→B ([2]; SLS 0.04 mg/ml (control set a)): 0.31 ± 0.1 ×10⁻⁶ cm/s
Papp A→B (in vitro): 33 ± 0.7 ×10⁻⁶ cm/s
Papp A→B ([1]; Caco-2): 0.29 ± 0.16 ×10⁻⁶ cm/s
Papp B→A ([1]; Caco-2): 0.71 ± 0.15 ×10⁻⁶ cm/s
recovery ([1]; Caco-2, A→B Recovery): 83.9 ± 9.1%
recovery ([1]; Caco-2, B→A Recovery): 90.7 ± 12.2%
Papp at 90 min ([3]; other: closed-loop recirculating in situ jejunal perfusion, HPMC 0.06 mg/ml): 40 ± 7 ×10⁻⁶ cm/s
Papp at 90 min ([3]; other: closed-loop recirculating in situ jejunal perfusion, HPMC […]): 7 ± 17 ×10⁻⁶ cm/s
Papp at 90 min ([3]; other: closed-loop recirculating in situ jejunal perfusion, PEG 400 0.06 mg/ml): 24 ± 8 ×10⁻⁶ cm/s
Papp at 90 min ([3]; other: closed-loop recirculating in situ jejunal perfusion, PEG 400 0.30 mg/ml (first run)): 1 ± 1 ×10⁻⁶ cm/s
Papp at 90 min ([3]; other: closed-loop recirculating in situ jejunal perfusion, PEG 400 […]): 25 ± 8 ×10⁻⁶ cm/s
Papp at 90 min ([3]; other: closed-loop recirculating in situ jejunal perfusion, SLS 0.01 mg/ml): 32 ± 15 ×10⁻⁶ cm/s
Papp at 90 min ([3]; other: closed-loop recirculating in situ jejunal perfusion, SLS 0.02 mg/ml): 37 ± 10 ×10⁻⁶ cm/s
Papp at 90 min ([3]; other: closed-loop recirculating in situ jejunal perfusion, SLS 0.04 mg/ml): 1 ± 2 ×10⁻⁶ cm/s
Papp at 90 min ([3]; Povidone […]): 13 ± 1.5 ×10⁻⁶ cm/s
Compound: CC(C)(C)NCC(O)COc1cccc2c1CC(O)C(O)C2 (stereo not shown) [Nadolol, nadolol]
